{"source": "patent US10782295B2", "about": "“Cysteine-reactive ligand discovery in proteomes” (THE SCRIPPS RESEARCH INSTITUTE, priority 2013, dated 2020)", "test_system": "AKT1/2/3", "test": "competitive isoTOP-ABPP, concentration-dependent HNE", "format": "binding, human", "settings": "MDA-MB-231 proteome, read-out: IC50 for inhibition of cysteine (C311) in AKT1/2/3", "description": "The MDA-MB-231 cell proteome was treated with varying concentrations of HNE (5, 10, 50, 100 and 500 μM) for 60 min and then the IA-labeling profile of each reaction was quantitatively compared to a DMSO-control sample by isoTOP-ABPP.\nBy combining the R values at all 5 HNE concentrations, we could extrapolate IC50 values for […] of IA probe-labeling for ˜700 of the 1100 cysteines (FIG. 3a).\nHNE was purchased from EMD biosciences, 15d-PGJ2 was purchased from Cayman Chemicals and 2-HD was purchased from Santa Cruz Biotechnology. Proteome samples were diluted to a 4 mg protein/mL solution in PBS. […]\nIA-probe labeled peptides were identified by SEQUEST2 and DTASelect3, and the quantification of heavy/light ratios (isoTOP-ABPP ratios, R) was performed by an in-house software (CIMAGE) as previously described. The software was advanced to be able to detect and quantify cases where near complete […] blockade of IA-probe labeling was achieved (e.g., very small or no light peak) and assign an empirical ratio cut-off of 15 to each of such cases. […] In the case of probe-modified peptides that were sequenced in one, but not the other runs, a featured algorithm of CIMAGE was utilized to identify the corresponding peak pairs in the runs without the SEQUEST identification and obtain quantification as previously described. […]"}
{"smiles": "CCCCCC(O)/C=C/C=O", "note": "(stereo not shown) [4-HNE, 4-Hydroxynonenal]", "values": [{"measurement": "IC50", "value": 60, "unit": "µM"}]}
